Results: US20210340120A1, “PESTICIDALLY ACTIVE AZOLE-AMIDE COMPOUNDS” (SYNGENTA PARTICIPATIONS AG, priority 2018, published 2021)

Tests used:
Format in all cases: in vivo
Thrips tabaci = assay: Example B8: Thrips tabaci (onion thrips) feeding/contact activity, sunflower leaf discs; conditions: foliar, 144 h, application rate 200 ppm, 6 days after infestation, mixed ages
Method: (§1) Sunflower leaf discs were placed on agar in 24-well microtiter plates and sprayed with aqueous test solutions prepared from 10′000 ppm DMSO stock solutions. After drying the leaf discs were infested with a thrips population of mixed ages. The samples were assessed for mortality 6 days after infestation.

Euschistus heros = assay: Example B2: Euschistus heros (neotropical brown stink bug), soybean leaves sprayed, N2 nymphs; conditions: 120 h, application rate 200 ppm, 5 days after infestation, read-out: control in at least one of the two categories (mortality or growth inhibition)
Method: Soybean leaves on agar in 24-well microtiter plates were sprayed with aqueous test solutions prepared from 10′000 ppm DMSO stock solutions. After drying the leaves were infested with N2 nymphs. The samples were assessed for mortality and growth inhibition in comparison to untreated samples 5 days after infestation.

Spodoptera littoralis = assay: Example B6: Spodoptera littoralis (Egyptian cotton leaf worm), cotton leaf discs, L1 larvae; conditions: foliar, 72 h, application rate 200 ppm, 3 days after infestation, read-out: control in at least one of the categories (mortality, anti-feedant effect, or growth inhibition)
Method: Cotton leaf discs were placed onto agar in 24-well microtiter plates and sprayed with aqueous test solutions prepared from 10′000 ppm DMSO stock solutions. After drying the leaf discs were infested with five L1 larvae. The samples were assessed for mortality, anti-feeding effect, and growth inhibition in comparison to untreated samples 3 days after infestation. Control of Spodoptera littoralis by a test sample is given when at least one of the categories mortality, anti-feedant effect, and growth inhibition is higher than the untreated sample.

Diabrotica balteata = assay: Example B1: Diabrotica balteata (corn root worm), maize sprouts sprayed, L2 larvae; conditions: 96 h, application rate 200 ppm, 4 days after infestation, read-out: control in at least one of the two categories (mortality or growth inhibition)
Method: Maize sprouts placed onto an agar layer in 24-well microtiter plates were treated with aqueous test solutions prepared from 10′000 ppm DMSO stock solutions by spraying. After drying, the plates were infested with L2 larvae (6 to 10 per well). The samples were assessed for mortality and growth inhibition in comparison to untreated samples 4 days after infestation.

Myzus persicae [1] = assay: Example B10: Myzus persicae (green peach aphid), sucrose solution, 96-well; conditions: 120 h, application rate 50 ppm, 5 days after infestation
Method: Test compounds prepared from 10′000 ppm DMSO stock solutions were applied by a liquid handling robot into 96-well microtiter plates and mixed with a sucrose solution. Parafilm was stretched over the 96-well microtiter plate and a plastic stencil with 96 holes was placed onto the plate. Aphids were sieved into the wells directly onto the Parafilm. The infested plates were closed with a gel blotting card and a second plastic stencil and then turned upside down. The samples were assessed for mortality 5 days after infestation.

Plutella xylostella = assay: Example B3: Plutella xylostella (diamond back moth), artificial diet, eggs; conditions: 192 h, application rate 200 ppm, 8 days after infestation, read-out: control in at least one of the two categories (mortality or growth inhibition)
Method: 24-well microtiter plates with artificial diet were treated with aqueous test solutions prepared from 10′000 ppm DMSO stock solutions by pipetting. After drying, Plutella eggs were pipetted through a plastic stencil onto a gel blotting paper and the plate was closed with it. The samples were assessed for mortality and growth inhibition in comparison to untreated samples 8 days after infestation. The following compounds gave an effect of at least 80% control in at least one of the two categories (mortality or growth inhibition) at an application rate of 200 ppm: P1, P2, P3, P4, P5, P6

Chilo suppressalis = assay: Example B9: Chilo suppressalis (striped rice stemborer), artificial diet, L2 larvae; conditions: 144 h, application rate 200 ppm, 6 days after infestation, read-out: control in at least one of the three categories (mortality, anti-feedant effect or growth inhibition)
Method: 24-well microtiter plates with artificial diet were treated with aqueous test solutions prepared from 10′000 ppm DMSO stock solutions by pipetting. After drying, the plates were infested with L2 larvae (6-8 per well). The samples were assessed for mortality, anti-feeding effect, and growth inhibition in comparison to untreated samples 6 days after infestation. Control of Chilo suppressalis by a test sample is given when at least one of the categories mortality, anti-feedant effect, and growth inhibition is higher than the untreated sample.

Tetranychus urticae = assay: Example B7: Tetranychus urticae (two-spotted spider mite) feeding/contact activity, bean leaf discs; conditions: foliar, 192 h
Method: as §1, with “Bean” for “Sunflower”, “discs” for “discs were placed”, “were” for “and”, “mite” for “thrips”, “on mixed population (mobile stages) 8” for “6”

Myzus persicae [2] = assay: Example B5: Myzus persicae (green peach aphid) intrinsic activity, sucrose solution, 24-well; conditions: 120 h, test rate 12 ppm, 5 days after infestation
Method: Test compounds prepared from 10′000 ppm DMSO stock solutions were applied by pipette into 24-well microtiter plates and mixed with sucrose solution. The plates were closed with a stretched Parafilm. A plastic stencil with 24 holes was placed onto the plate and infested pea seedlings were placed directly on the Parafilm. The infested plate was closed with a gel blotting paper and another plastic stencil and then turned upside down. The samples were assessed for mortality 5 days after infestation.

Myzus persicae [3] = assay: Example B4: Myzus persicae (green peach aphid) feeding/contact activity, sunflower leaf discs; conditions: foliar, 144 h, application rate 200 ppm, 6 days after infestation, mixed ages
Method: Sunflower leaf discs were placed onto agar in a 24-well microtiter plate and sprayed with aqueous test solutions prepared from 10′000 ppm DMSO stock solutions. After drying, the leaf discs were infested with an aphid population of mixed ages. The samples were assessed for mortality 6 days after infestation.

CC(NC(=O)c1cc(C(F)(F)F)cc(C(F)(F)F)c1)c1ncnn1-c1ncccc1F (stereo not shown) [Compound P4, N-[1-[2-(3-fluoro-2-pyridyl)-1,2,4-triazol-3-yl]ethyl]-3,5-bis(trifluoromethyl)benzamide]
≥ 80%: mortality at 200 ppm (Thrips tabaci) | percent control (mortality or growth inhibition) at 200 ppm (Euschistus heros) | percent control (mortality, anti-feedant effect or growth inhibition) at 200 ppm (Spodoptera littoralis) | percent control (mortality or growth inhibition) at 200 ppm (Diabrotica balteata) | mortality at 50 ppm (Myzus persicae [1]) | percent control (mortality or growth inhibition) at 200 ppm (Plutella xylostella)

CC(NC(=O)c1cc(C(F)(F)F)cc(C(F)(F)F)c1)c1ncnn1-c1ccc(Cl)cn1 (stereo not shown) [Compound P1, N-[1-[2-(5-chloro-2-pyridyl)-1,2,4-triazol-3-yl]ethyl]-3,5-bis(trifluoromethyl)benzamide]
≥ 80%: percent control (mortality or growth inhibition) at 200 ppm (Euschistus heros) | percent control (mortality, anti-feedant effect or growth inhibition) at 200 ppm (Spodoptera littoralis) | percent control (mortality or growth inhibition) at 200 ppm (Diabrotica balteata) | percent control (mortality or growth inhibition) at 200 ppm (Plutella xylostella) | percent control (mortality, anti-feedant effect or growth inhibition) at 200 ppm (Chilo suppressalis)

CC(NC(=O)c1cc(C(F)(F)F)cc(C(F)(F)F)c1)c1ncnn1-c1cccc(F)n1 (stereo not shown) [Compound P6, N-[1-[2-(6-fluoro-2-pyridyl)-1,2,4-triazol-3-yl]ethyl]-3,5-bis(trifluoromethyl)benzamide]
≥ 80%: percent control (mortality or growth inhibition) at 200 ppm (Plutella xylostella) | percent control (mortality, anti-feedant effect or growth inhibition) at 200 ppm (Chilo suppressalis)

CC(NC(=O)c1cc(C(F)(F)F)cc(C(F)(F)F)c1)c1ncnn1-c1ccc(F)cn1 (stereo not shown) [Compound P3, N-[1-[2-(5-fluoro-2-pyridyl)-1,2,4-triazol-3-yl]ethyl]-3,5-bis(trifluoromethyl)benzamide]
≥ 80%: percent control (mortality or growth inhibition) at 200 ppm (Euschistus heros) | percent control (mortality, anti-feedant effect or growth inhibition) at 200 ppm (Spodoptera littoralis) | percent control (mortality or growth inhibition) at 200 ppm (Diabrotica balteata) | mortality at 200 ppm (Tetranychus urticae) | percent control (mortality or growth inhibition) at 200 ppm (Plutella xylostella) | mortality at 12 ppm (Myzus persicae [2])

CC(c1ncnn1-c1ccc(F)cn1)N(CC1CC1)C(=O)c1cc(C(F)(F)F)cc(C(F)(F)F)c1 (stereo not shown) [Compound P5, N-(cyclopropylmethyl)-N-[1-[2-(5-fluoro-2-pyridyl)-1,2,4-triazol-3-yl]ethyl]-3,5-bis(trifluoromethyl)benzamide]
≥ 80%: percent control (mortality or growth inhibition) at 200 ppm (Euschistus heros) | percent control (mortality, anti-feedant effect or growth inhibition) at 200 ppm (Spodoptera littoralis) | percent control (mortality or growth inhibition) at 200 ppm (Diabrotica balteata) | mortality at 200 ppm (Tetranychus urticae) | mortality at 200 ppm (Myzus persicae [3]) | percent control (mortality or growth inhibition) at 200 ppm (Plutella xylostella)

CC(c1ncnn1-c1ncccc1F)N(CC1CC1)C(=O)c1cc(C(F)(F)F)cc(C(F)(F)F)c1 (stereo not shown) [Compound P2, N-(cyclopropylmethyl)-N-[1-[2-(3-fluoro-2-pyridyl)-1,2,4-triazol-3-yl]ethyl]-3,5-bis(trifluoromethyl)benzamide]
≥ 80%: percent control (mortality, anti-feedant effect or growth inhibition) at 200 ppm (Spodoptera littoralis) | percent control (mortality or growth inhibition) at 200 ppm (Diabrotica balteata) | percent control (mortality or growth inhibition) at 200 ppm (Plutella xylostella)
